Patent publication US20030144360A1, “Composition and method for modulating BAR/FXR receptor activity” (Allergan Sales, Inc., priority 2001, published 2003)

T1: BAR-RXRα complex (UniProt P19793+Q62735)
T1 sequence (Q62735 1-469): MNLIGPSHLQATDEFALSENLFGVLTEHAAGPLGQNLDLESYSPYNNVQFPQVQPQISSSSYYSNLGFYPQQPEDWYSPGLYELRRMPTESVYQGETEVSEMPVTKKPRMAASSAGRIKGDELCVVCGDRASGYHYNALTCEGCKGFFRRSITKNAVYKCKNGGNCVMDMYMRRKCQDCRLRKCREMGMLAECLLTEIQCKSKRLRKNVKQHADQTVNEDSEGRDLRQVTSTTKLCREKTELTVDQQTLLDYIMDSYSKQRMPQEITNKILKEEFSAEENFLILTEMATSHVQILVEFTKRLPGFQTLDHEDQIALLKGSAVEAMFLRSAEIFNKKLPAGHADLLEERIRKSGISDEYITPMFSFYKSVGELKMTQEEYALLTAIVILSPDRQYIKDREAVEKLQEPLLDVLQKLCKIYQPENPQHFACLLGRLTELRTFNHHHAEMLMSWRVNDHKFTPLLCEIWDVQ
T1 sequence (P19793 1-462): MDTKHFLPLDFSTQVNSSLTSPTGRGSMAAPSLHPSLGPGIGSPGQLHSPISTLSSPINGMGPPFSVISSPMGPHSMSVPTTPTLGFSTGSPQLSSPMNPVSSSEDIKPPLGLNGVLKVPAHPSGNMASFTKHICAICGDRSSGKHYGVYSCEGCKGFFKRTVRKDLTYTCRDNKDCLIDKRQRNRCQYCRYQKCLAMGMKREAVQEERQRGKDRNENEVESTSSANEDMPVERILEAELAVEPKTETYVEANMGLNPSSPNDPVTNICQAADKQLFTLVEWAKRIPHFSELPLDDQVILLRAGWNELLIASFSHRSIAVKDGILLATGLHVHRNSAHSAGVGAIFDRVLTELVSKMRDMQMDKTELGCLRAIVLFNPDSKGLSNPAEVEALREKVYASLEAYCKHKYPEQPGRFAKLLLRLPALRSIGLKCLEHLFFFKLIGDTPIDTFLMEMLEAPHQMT

T2: GAL-L-hRXRa (Homo sapiens, UniProt P19793)
T2 sequence (P19793 203-462): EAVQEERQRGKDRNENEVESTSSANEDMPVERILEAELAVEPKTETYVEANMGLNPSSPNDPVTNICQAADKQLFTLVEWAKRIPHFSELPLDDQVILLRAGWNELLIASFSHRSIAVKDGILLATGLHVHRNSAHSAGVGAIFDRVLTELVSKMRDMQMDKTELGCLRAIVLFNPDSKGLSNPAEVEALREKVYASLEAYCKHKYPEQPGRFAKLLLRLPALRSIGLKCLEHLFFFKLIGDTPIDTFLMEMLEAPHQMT

B1: IBABP IR-1 BAR/FXR response element (dsDNA)
DNA 1: CCTTAAGGTGAATAACCTTGGGGCTCC
DNA 2: GGAGCCCCAAGGTTATTCACCTTAAGG

What was measured:
BAR-RXRα complex = target: T1, BAR-RXRα complex; settings: cited from earlier work
[1] = system: other nuclear hormone receptors; settings: cited from earlier work
GAL-L-hRXRa = target: T2, GAL-L-hRXRa; assay: Co-transfection luciferase assay, MH100 × 4 reporter, GAL-L-hRXRa alone; settings: 50 μM CDCA
Protocol: CV-1 African Green Monkey cells were grown in Dulbecco's Modified Eagle's medium supplemented with 10% resin-charcoal stripped fetal bovine serum (FBS), 50 U/ml penicillin G and 50 μg/ml streptomycin sulfate (DMEM-FBS) at 37° C. in 5% CO2. One day prior to transfection, cells were plated to 50-80% confluence using phenol red-free DMEM-FBS. Cells were transiently transfected by lipofection as described in Forman et al., 81 Cell 687 (1995). Liposomes (N-[1-(2,3-dioleoyloxy)propyl]-N,N,N-ammonium methyl sulfate, sold by Boehringer Mannheim under the name DOTAP) were formed according to the manufacturer's instructions. The liposomes contained reporter gene constructs (300 ng/10^5 cells); cytomegalovirus driven expression vectors (25 ng/10^5 cells) were added as indicated along with CMX-Bgal (500 ng/10^5 cells) as an internal control. After 2 hours the liposomes were removed and replaced with fresh media. Cells were incubated for approximately 40 hours with phenol red-free DMEM-FBS containing the indicated compounds. After exposure to the specified ligand, the cells were harvested.
The harvested cells were assayed for the presence of luciferase activity. Cells were lysed in 0.1 M KPO4 (pH 7.8), 1.0% TRITON® X-100, 1.0 mM dithiolthreitol (DTT) and 2 mM ethylenediamine tetracetic acid (EDTA). Luciferase activity was measured by reaction of the cell lysates with luciferin in a reaction buffer comprising: 20 mM tricine, 1.07 mM Mg(CO3)4-Mg(OH)2-5H2O, 2.67 mM MgSO4.7H2O, 0.1 mM EDTA, 0.5 mM Sodium luciferin, 0.15 mg/ml Coenzyme A, 5 mM DTT, and 0.5 mM adenosine triphosphate (ATP). Resulting chemiluminescence was measured in a luminometer. […] All points were assayed in triplicate and varied by less than 15%. Each experiment was repeated three or more times with similar results.
As shown below, in most cases hRXRop was recombinantly coexpressed with one other of the indicated receptor constructs, so as to permit the formation of hetero-or homodimers containing hRXRop.
Expression of the luciferase reporter gene product was detected and quantified as described above.

[2] = target: BAR/FXR:RXR heterodimer (CV-1 cells) (/ Homo sapiens, UniProt Q62735;P19793 SEQ:1-469,SEQ:1-462); assay: cell_activity; CV-1, 100 uM CDCA; text gives IBABP IR-1 reporter, FIG. 1A legend gives EcREx6; settings: label: 32P (gel shift)

Molecule | activation of the BAR-RXR complex (BAR-RXRα complex) | also measured
COC(=O)/C=C(\C)CC/C=C(\C)CC[C@H]1OC1(C)C [JH III, juvenile hormone III] | activated | activation of BAR/FXR or RXR alone (BAR-RXRα complex; either receptor alone): does not activate; activation of other nuclear hormone receptors [1]: failed to activate
CC(C)CCC[C@@H](C)[C@H]1CC[C@H]2[C@@H]3CC=C4C[C@@H](O)CC[C@]4(C)[C@H]3CC[C@]12C [cholesterol] | did not activate | 
CC(C)=CCC/C(C)=C/CC/C(C)=C/CC/C=C(\C)CC/C=C(\C)CCC=C(C)C [squalene] | did not activate | 
C[C@H](CCC(=O)O)[C@H]1CC[C@H]2[C@@H]3[C@H](O)C[C@@H]4C[C@H](O)CC[C@]4(C)[C@H]3CC[C@]12C [CDCA, chenodeoxycholic acid, reference compound] |  | Reporter Activity (GAL-L-hRXRa): 0.38
CC(C)=CCC/C(C)=C/CC/C(C)=C/CC/C(C)=C/CO [geranylgeraniol] | somewhat less strongly | 
CC(C)=CCC/C(C)=C/CO [geraniol] | did not activate | 
CC(C)=CCCC(C)=CCCC(C)=CC=O [farnesal] | somewhat less strongly | 
CC(C)=CCCC(C)=CCCC(C)=CC(=O)O [farnesoic acid] | somewhat less strongly | 
B1 |  | activity [2]: ~200 fold activation
